# Measured values published in paper PMC12373846, “Hemoglobin as a pseudoperoxidase and drug target for oxidative stress-related diseases” (Signal Transduction and Targeted Therapy, 2025).
# What was measured:
# [1] = tested on: APP/PS1 mice; assay: Immunohistochemistry of hippocampus, APP/PS1 mice; type: in vivo, mouse
# Protocol: For an animal model of AD, both sexes of 10- to 18-month-old APP/PS1 mice were maintained and used as previously described.[76],[77] To test the effects of novel H2O2-decomposing enhancers in the AD model, the mice were treated by i.p. injection with KDS12008 (3 mg/kg/day), KDS12017 (3 mg/kg/day), or KDS12025 (3 or 10 mg/kg/day) once per day for 1 or 2 weeks, depending on the experimental protocol. All drugs were dissolved in 200 μl of saline, and the amount of each drug was calculated on the basis of the weight (kg) of the mouse. Moreover, KDS12025 (3 mg/kg/day) was orally administered to the AD model for 2 weeks ad libitum.
# The mice were deeply anesthetized with vaporized 1% isoflurane and placed into stereotaxic frames (RWD Life Science, China). Following an incision on the midline of the scalp, a hole was drilled into the skull above the hippocampus. AAV-GFAP104-GFP or AAV-GFAP104-DTR-GFP was bilaterally microinjected into the hippocampal CA1 region (AP, −2.0 mm; ML, ±1.5 mm; DV, −1.65 mm from the bregma). Diphtheria toxin (2 mg/ml) was administered for 16 days as previously described.[77] For shRNA knockdown, AAV-pSicoR-Hbβ-shRNA-mCherry or AAV-pSicoR-Sc-shRNA-mCherry was microinjected into the same coordinate system. A total of 0.8 µl of the virus was injected via a syringe pump (KD Scientific, USA). The injection procedures were implemented before 5 weeks of the experiments. For cell type-specific knockdown, AAV-pSico-Hbβ-shRNA-GFP or AAV-pSico-Sc-shRNA-GFP was combined with either AAV-CaMKII-Cre-mCherry for neuronal targeting or AAV-GFAP-Cre-mCherry for astrocyte targeting. The viruses were bilaterally injected into the hippocampus and substantia nigra via the same stereotaxic coordinates and injection procedures. All viruses used in this study were produced at the Institute for Basic Science virus facility (IBS virus facility, Korea). To investigate the effects of 0.1 mg/kg/day KDS12025, GiD mice were injected with diphtheria toxin (2 mg/ml) daily for 16 days. Concurrently, KDS12025 was administered ad libitum (0.1 mg/kg/day) during the same period.
# The mice were deeply anesthetized with 2% isoflurane and positioned on the operating table. After the abdomen was opened and the heart was exposed, the […] were perfused with saline, followed by 4% paraformaldehyde (PFA) in 0.1 M PBS. The mice were decapitated, and the brains were excised from the skull. Excised brains were postfixed in 4% PFA overnight at 4 °C and dehydrated in 30% sucrose for 48 h. Coronal hippocampal sections were cut at 30 µm thickness with a cryostat and stored in storage solution. For the ALS experiments, lumbar spinal cords (L2–L5) were also carefully dissected and immediately immersed in 4% PFA for postfixation. The sections were fully washed in 0.1 M PBS and incubated for 1 h in blocking solution (0.3% Triton X-100, 2% donkey and goat serum in 0.1 M PBS). Next, a mixture of primary antibodies in the blocking solution was used for immunostaining on a shaker overnight at 4 °C. The sections were washed in PBS three times. After washing, the sections were incubated with the corresponding fluorescent secondary antibodies for 1 h at RT. DAPI staining was performed by adding a DAPI solution (1:2000) during the second washing step. After the washing step was complete, the sections were mounted on cover slides with mounting medium. A series of fluorescence images were obtained with an LSM900 (Zeiss, Germany) confocal microscope or Lattice SIM Elyra 7 (Zeiss, Germany). The 15–22 μm Z stack images in 1–2 μm steps were processed for image analysis, which was performed via the ImageJ (NIH, US) and ZEN digital imaging for light microscopy blue system (Zeiss, Germany) programs.
# [2] = ROS-Glo H2O2 assay without HRP or Hb; type: biochemical; conditions: ROS-Glo assay lacking HRP/Hb
# Protocol: (§1) Hb (Sigma‒Aldrich, H7379), H2O2 (Sigma‒Aldrich, H1009), and Amplex Red reagents (Invitrogen, A12222) were obtained for the study. A 4 μM H2O2 solution was prepared in 50 mM sodium phosphate buffer (pH 7.2). Then, 49 μl of this mixture was mixed with 1 μl of the test compound in DMSO or distilled water. The mixture was combined with an assay mixture of Amplex Red reagent (20 mM stock to 0.1 mM) and HRP (200 U/ml stock to 0.2 U/ml) and added to the wells at 50 μl/well. After a 60-min incubation at 37 °C, resorufin production was quantified via a microplate fluorescence reader (SpectraMax iD5, Molecular Devices) at ex/em = 535/580 nm. The H2O2-decomposing activity was estimated via the following equation: (sample fluorescence-blank fluorescence)/(control […]-blank fluorescence) × 100. For the ROS-Glo assay, the H2O2 substrate solution and ROS-Glo detection solution were prepared according to the manufacturer’s instructions. 10 μM H2O2 and drugs were prepared as in the Amplex Red assay, with HRP, Hb, CAT, or GPx added as needed. The mixture was added to the wells at 100 μl/well and incubated for 60 min at 37 °C. H2O2 substrate solution was added, and the mixture was incubated at room temperature for 30 min. After the H2O2 substrate solution was added and incubated at room temperature for 30 min, the ROS-Glo detection solution was added, and the mixture was incubated for 15 min. Luminescence was measured via iD5 microplate readers. The H2O2-decomposing activity was estimated via the following equation: (sample luminescence-blank luminescence)/(control luminescence-blank luminescence) × 100. The U/ml was calculated on the basis of the amount of H2O2 reduced by Hb during the reaction, using μg/ml and U/mg.
# [3] = biological target: T1, HRP (Armoracia rusticana, UniProt P00433); assay: H2O2 assay with HRP (HRP-EC50); type: biochemical, horseradish; conditions: Tables S2, S3; read-out: HRP-EC50
# T1 sequence (P00433 31-353): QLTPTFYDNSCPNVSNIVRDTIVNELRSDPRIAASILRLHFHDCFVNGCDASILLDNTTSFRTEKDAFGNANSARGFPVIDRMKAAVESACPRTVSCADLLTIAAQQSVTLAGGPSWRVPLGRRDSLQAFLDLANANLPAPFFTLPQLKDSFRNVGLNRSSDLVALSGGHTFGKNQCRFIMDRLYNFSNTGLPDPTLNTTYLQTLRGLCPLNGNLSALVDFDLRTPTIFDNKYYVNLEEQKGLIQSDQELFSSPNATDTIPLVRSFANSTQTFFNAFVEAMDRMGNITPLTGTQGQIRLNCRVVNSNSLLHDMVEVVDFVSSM
# Protocol: as §1
smiles,measurement,setting,value
"CNc1ccc(NCCc2ccccc2OC)cc1.Cl [KDS12025, N^1-(2-methoxyphenethyl)-N^4-methylbenzene-1,4-diamine hydrochloride salt]",mean Hbβ intensity in GFAP-positive areas,"[1]; 3 mg/kg/day ad libitum, Fig. 5e","WT (70.03±1.523, n=55), APP (62.3±1.219, n=65), APP+KDS12025 (ad libitum) (68.67±2.358, n=54) One-way ANOVA with Tukey's multiple comparisons test, F(2,171) = 6.123, p = 0.003 WT vs. APP, p = 0.004; WT vs. APP+KDS12025 (ad libitum), p = 0.85; APP vs. APP+KDS12025 (ad libitum), p = 0.02"
same,mean GFAP intensity in GFAP-positive areas,"[1]; 3 mg/kg/day ad libitum, Fig. 5f","WT (61.01±2.28, n=6), APP (114.3±9.536, n=6), APP+KDS12025 (ad libitum) (64.48±6.98, n=6) One-way ANOVA with Tukey's multiple comparisons test, F(2,14) = 17.24, p < 0.001 WT vs. APP, p < 0.001; WT vs. APP+KDS12025 (ad libitum), p = 0.89; APP vs. APP+KDS12025 (ad libitum), p < 0.001"
same,"Sholl analysis, sum of intersections","[1]; 3 mg/kg/day ad libitum, Fig. 5g","WT (31.45±3.606, n=11), APP (63.19±5.017, n=16), APP+KDS12025 (ad libitum) (33.69±3.3, n=13) One-way ANOVA with Tukey's multiple comparisons test, F(2,37) = 18.10, p < 0.001 WT vs. APP, p < 0.001; WT vs. APP+KDS12025 (ad libitum), p = 0.94; APP vs. APP+KDS12025 (ad libitum), p < 0.001"
same,"Sholl analysis, ending radius","[1]; 3 mg/kg/day ad libitum, Fig. 5i","WT (110.0±6.606, n=11), APP (135.6±5.625, n=16), APP+KDS12025 (ad libitum) (103.1±7.794, n=13) One-way ANOVA with Tukey's multiple comparisons test, F(2,37) = 7.249, p = 0.002 WT vs. APP, p = 0.03; WT vs. APP+KDS12025 (ad libitum), p = 0.77; APP vs. APP+KDS12025 (ad libitum), p = 0.003"
same,"Sholl analysis, number of intersections","[1]; 3 mg/kg/day ad libitum, Fig. 5j","Two-way ANOVA with Tukey's multiple comparison test, F (2,378) = 37.72, p < 0.001 WT (2.028, n=12), APP (4.318, n=17), APP+KDS12025 (ad libitum) (2.392, n=12) WT vs. APP, p < 0.001 (***); WT vs. APP+KDS12025 (ad libitum), p = 0.52; APP vs. APP+KDS12025 (ad libitum), p < 0.001 (^###)"
same,"Sholl analysis, ramification index","[1]; 3 mg/kg/day ad libitum, Fig. 5h","WT (1.617±0.2177, n=11), APP (7.134±1.523, n=16), APP+KDS12025 (ad libitum) (2.808±0.6584, n=13) One-way ANOVA with Tukey's multiple comparisons test, F(2,37) = 6.945, p = 0.003 WT vs. APP, p = 0.004; WT vs. APP+KDS12025 (ad libitum), p = 0.76; APP vs. APP+KDS12025 (ad libitum), p = 0.02"
same,mean intensity of GABA in GFAP-positive area,"[1]; 3 mg/kg/day ad libitum, Fig. S11c","WT (41.73±1.1951, n=19), APP (50.90±1.074, n=41), APP+KDS12025 (ad libitum) (44.45±1.015, n=28) One-way ANOVA with Tukey's multiple comparisons test, F(2,85) = 14.24, p < 0.001 WT vs. APP, p < 0.001; WT vs. APP+KDS12025 (ad libitum), p = 0.38; APP vs. APP+KDS12025 (ad libitum), p < 0.001"
same,mean intensity of 8-OHdG in GFAP-positive area,"[1]; 3 mg/kg/day ad libitum, Fig. S11d","WT (1903±72.86, n=32), APP (2435±66.11, n=58), APP+KDS12025 (ad libitum) (1951±48.61, n=57) One-way ANOVA with Tukey's multiple comparisons test, F(2,144) = 23.42, p < 0.001 WT vs. APP, p < 0.001; WT vs. APP+KDS12025 (ad libitum), p = 0.88; APP vs. APP+KDS12025 (ad libitum), p < 0.001"
same,mean intensity of Iba1 in the hippocampus,"[1]; 3 mg/kg/day i.p., Fig. S10e",1343±38.44
same,mean intensity of GFAP in the hippocampus,"[1]; 3 mg/kg/day i.p., Fig. S10d",1190±87.29
same,mean intensity of GFAP in the hippocampus,"[1]; 3mpk i.p., Fig. S10i",59.33±6.459
same,mean intensity of GFAP in the hippocampus,"[1]; 10mpk i.p., Fig. S10i",56.71±4.775
same,GFAP-positive area,"[1]; APP+ScRNA+KDS12025, Fig. 6i",142.4±8.715
same,GFAP intensity,"[1]; APP+ScRNA+KDS12025, Fig. 6j",124.3±1.773
same,Hbβ intensity in GFAP-positive areas,"[1]; APP+ScRNA+KDS12025, Fig. 6h",10.10±0.4531
same,"Sholl analysis, sum of intersections","[1]; APP+ScRNA+KDS12025, Fig. S16e",142.4±8.715
same,"Sholl analysis, ending radius","[1]; APP+ScRNA+KDS12025, Fig. S16f",54.48±2.319
same,"Sholl analysis, number of intersections","[1]; APP+ScRNA+KDS12025, Fig. S16g",4.984±0.7027
same,GFAP-positive area,"[1]; APP+shHbβ+KDS12025, Fig. 6i",234.3±16.93
same,GFAP intensity,"[1]; APP+shHbβ+KDS12025, Fig. 6j",146.8±2.262
same,Hbβ intensity in GFAP-positive areas,"[1]; APP+shHbβ+KDS12025, Fig. 6h",6.275±0.4473
same,"Sholl analysis, sum of intersections","[1]; APP+shHbβ+KDS12025, Fig. S16e",234.3±16.93
same,"Sholl analysis, ending radius","[1]; APP+shHbβ+KDS12025, Fig. S16f",100.4±6.075
same,"Sholl analysis, number of intersections","[1]; APP+shHbβ+KDS12025, Fig. S16g",5.314±0.9626
same,Hbβ intensity in GFAP-positive areas,"[1]; APP+shHbβ::CaMKII+KDS12025, Fig. 6m",110.5±1.59
same,GFAP-positive area,"[1]; APP+shHbβ::CaMKII+KDS12025, Fig. 6n",55.98±5.45
same,GFAP intensity,"[1]; APP+shHbβ::CaMKII+KDS12025, Fig. 6o",131.4±3.56
same,"Sholl analysis, sum of intersections","[1]; APP+shHbβ::CaMKII+KDS12025, Fig. S17b",42.1±3.9
same,"Sholl analysis, ending radius","[1]; APP+shHbβ::CaMKII+KDS12025, Fig. S17c",80.3±6.8
same,Hbβ intensity in GFAP-positive areas,"[1]; APP+shHbβ::GFAP+KDS12025, Fig. 6m",87.46±1.26
same,GFAP-positive area,"[1]; APP+shHbβ::GFAP+KDS12025, Fig. 6n",134.3±10.91
same,GFAP intensity,"[1]; APP+shHbβ::GFAP+KDS12025, Fig. 6o",152.1±5.50
same,"Sholl analysis, sum of intersections","[1]; APP+shHbβ::GFAP+KDS12025, Fig. S17b",57.9±3.7
same,"Sholl analysis, ending radius","[1]; APP+shHbβ::GFAP+KDS12025, Fig. S17c",109.8±5.4
same,H2O2-decomposing activity without HRP or Hb,[2],neither KDS12017 nor KDS12025 degrades H2O2 without Hb
same,EC50,[3],529 nM
